Assay results published in patent publication US20190029252A1, “Use of Herbicide-tolerant Protein” (BEIJING DABEINONG TECHNOLOGY GROUP CO., LTD., priority 2016, published 2019).

Key:
Format in all cases: in vivo
[1] = test system: At chloroplastic ALT-3-01 T1 plants; experiment: Herbicide tolerance of Arabidopsis thaliana T1 plants, sprayed, resistance classes counted 14 days after spraying; details: sprayed at 1-fold field concentration
From the text: (§1) T1 transformants were initially selected from the background of untransformed seeds using a glufosinate selection scheme. About 40000 T1 seeds were screened, and 380 T1 positive transformants (PAT gene) were identified with a transformation efficiency of about 0.95%. The plants that were transformed with the recombinant expression vector DBN100632 were Arabidopsis thaliana plants having an ALT-1-01 nucleotide sequence located in the cytoplasm introduced (At cytoplasmic ALT-1-01), and the plants that were transformed with the recombinant expression vector DBN100631 were Arabidopsis thaliana plants having an ALT-1-01 nucleotide sequence located in the chloroplast introduced (At chloroplastic ALT-1-01); the plants that were transformed with the recombinant expression vector DBN100634 were Arabidopsis thaliana plants having an ALT-2-01 nucleotide sequence located in the cytoplasm introduced (At cytoplasmic ALT-2-01), and the plants that were transformed with the recombinant expression vector DBN100633 were Arabidopsis thaliana plants having an ALT-2-01 nucleotide sequence located in the chloroplast introduced (At chloroplastic ALT-2-01); and the plants that were transformed with the recombinant expression vector DBN100636 were Arabidopsis thaliana plants having an ALT-3-01 nucleotide sequence located in the cytoplasm introduced (At cytoplasmic ALT-3-01), and the plants that were transformed with the recombinant expression vector DBN100635 were Arabidopsis thaliana plants having an ALT-3-01 nucleotide sequence located in the chloroplast introduced (At chloroplastic ALT-3-01).
(§2) Plants were counted for the resistance situations 14 days after spraying: those having a consistent growth status with the blank solvent (water) group after 14 days were classified as highly resistant plants, those having a bolting height less than ½ of that of the blank solvent (water) group after 14 days were classified as moderately resistant plants, those still not capable of bolting after 14 days were classified as poorly resistant plants, and those dead after 14 days were classified as non-resistant plants. Since each Arabidopsis thaliana T1 plant was an independent transformation event, a significant difference in individual T1 responses could be expected at a given dose.
as §2, with “situation” for “situations”

[2] = test system: At cytoplasmic ALT-3-01 T1 plants; experiment: as above; details: sprayed at 1-fold field concentration
From the text: as §1, §2
as §2, with “situation” for “situations”

[3] = test system: At cytoplasmic ALT-1-01 T1 plants; experiment: as above; details: sprayed at 1-fold field concentration
From the text: as §1, §2
as §2, with “situation” for “situations”

[4] = test system: At chloroplastic ALT-1-01 T1 plants; experiment: as above; details: sprayed at 1-fold field concentration
From the text: as §1, §2
as §2, with “situation” for “situations”

[5] = test system: At cytoplasmic ALT-2-01 T1 plants; experiment: as above; details: sprayed at 1-fold field concentration
From the text: as §1, §2
as §2, with “situation” for “situations”

[6] = test system: At chloroplastic ALT-2-01 T1 plants; experiment: as above; details: sprayed at 1-fold field concentration
From the text: as §1, §2
as §2, with “situation” for “situations”

[7] = test system: Zm chloroplastic ALT-1-02 maize plants; experiment: Tribenuron-methyl tolerance of maize plants, damage degree after spraying; details: 72 g ai/ha (4-fold field concentration)
Experimental: (§3) The damage degree caused by the herbicide was measured for each plant according to the plant growth status 3 days after spraying (3 DAT), 7 days after spraying (7 DAT), 14 days after spraying (14 DAT) and 21 days after spraying (21 DAT), respectively: considering a growth status equivalent to that of the untreated plants as having a damage degree of 0%; considering conditions of leaves being partially chlorotic and yellow but substantially not affecting the plant normal growth as having a damage degree of 50%; and considering the whole plant being purple and dying as having a damage degree of 100%. There were 2 strains in Zm cytoplasmic ALT-1-02 maize plants in total (S13 and S14), 2 strains in Zm chloroplastic ALT-1-02 maize plants in total (S15 and S16), 2 strains in Zm cytoplasmic ALT-2-02 maize plants in total (S17 and S18), 2 strains in Zm chloroplastic ALT-2-02 maize plants in total (S19 and S20), 2 strains in Zm cytoplasmic ALT-3-02 maize plants in total (S21 and S22), 2 strains in Zm chloroplastic ALT-3-02 maize plants in total (S23 and S24), and 1 strain in wild-type maize plants (CK2) in total; and 10-15 plants were selected from each strain and tested.

[8] = test system: Zm cytoplasmic ALT-2-02 maize plants; experiment: as above; details: 72 g ai/ha (4-fold field concentration)
Experimental: as §3

[9] = test system: Zm cytoplasmic ALT-1-02 maize plants; experiment: as above; details: 72 g ai/ha (4-fold field concentration)
Experimental: as §3

[10] = test system: wild-type maize plants (CK2); experiment: as above
Experimental: as §3

[11] = maize strain S15 (Zm chloroplastic ALT-1-02)
[12] = maize strain S16 (Zm chloroplastic ALT-1-02)
[13] = maize strain S17 (Zm cytoplasmic ALT-2-02)
[14] = maize strain S18 (Zm cytoplasmic ALT-2-02)
[15] = maize strain S13 (Zm cytoplasmic ALT-1-02)
[16] = maize strain S14 (Zm cytoplasmic ALT-1-02)
[17] = maize strain CK2 (wild-type), 72 g ai/ha (4-fold field concentration)

COC(=O)c1ccccc1S(=O)(=O)NC(=O)N(C)c1nc(C)nc(OC)n1 [tribenuron-methyl, methyl 2-[N-(4-methoxy-6-methyl-1,3,5-triazin-2-yl)-N-methylaminoformamidosulfonyl]benzoate]
Highly resistant (number of plants) [1]: 27
Moderately resistant (number of plants) [1]: 0
Non-resistant (number of plants) [1]: 2
Poorly resistant (number of plants) [1]: 0
Highly resistant (number of plants) [2]: 22
Moderately resistant (number of plants) [2]: 1
Non-resistant (number of plants) [2]: 3
Poorly resistant (number of plants) [2]: 1
Highly resistant (number of plants) [3]: 24
Moderately resistant (number of plants) [3]: 2
Non-resistant (number of plants) [3]: 1
Poorly resistant (number of plants) [3]: 1
Highly resistant (number of plants) [4]: 28
Moderately resistant (number of plants) [4]: 0
Non-resistant (number of plants) [4]: 2
Poorly resistant (number of plants) [4]: 0
Highly resistant (number of plants) [5]: 25
Moderately resistant (number of plants) [5]: 1
Non-resistant (number of plants) [5]: 3
Poorly resistant (number of plants) [5]: 1
Highly resistant (number of plants) [6]: 29
Moderately resistant (number of plants) [6]: 0
Non-resistant (number of plants) [6]: 1
Poorly resistant (number of plants) [6]: 1
Average damage % 3DAT [7, 11]: 0%
Average damage % 7DAT [7, 11]: 0%
Average damage % 14DAT [7, 11]: 0%
Average damage % 21DAT [7, 11]: 0%
Average damage % 3DAT [7, 12]: 0%
Average damage % 7DAT [7, 12]: 0%
Average damage % 14DAT [7, 12]: 0%
Average damage % 21DAT [7, 12]: 0%
Average damage % 3DAT [8, 13]: 6%
Average damage % 7DAT [8, 13]: 0%
Average damage % 14DAT [8, 13]: 0%
Average damage % 21DAT [8, 13]: 0%
Average damage % 3DAT [8, 14]: 5%
Average damage % 7DAT [8, 14]: 0%
Average damage % 14DAT [8, 14]: 0%
Average damage % 21DAT [8, 14]: 0%
Average damage % 3DAT [9, 15]: 4%
Average damage % 7DAT [9, 15]: 0%
Average damage % 14DAT [9, 15]: 0%
Average damage % 21DAT [9, 15]: 0%
Average damage % 3DAT [9, 16]: 5%
Average damage % 7DAT [9, 16]: 0%
Average damage % 14DAT [9, 16]: 0%
Average damage % 21DAT [9, 16]: 0%
Average damage % 7DAT [10, 17]: 86%
Average damage % 14DAT [10, 17]: 100%
Average damage % 21DAT [10, 17]: 100%
herbicide tolerance (in words) ([10]; wild-type maize plants, 72 g ai/ha): not tolerant
